Laboratory results from PMC9925730, “Controlled sequential in situ self-assembly and disassembly of a fluorogenic cisplatin prodrug for cancer theranostics” (Nature Communications, 2023).
“And” between values parts separate entries of the source, which are not always exact repeats. Equal entries are not always repeated.

Legend:
HeLa cells = experiment: Distribution of Pt element in subcellular organelles (ICP-OES); type: cell-based
Protocol: Supplementary Table 3. Comparison of the distribution of Pt element in different subcellular organelles between P-CyPt and CDDP. a Subcellular Amount of Pt distributed in a Percentage of Pt distributed in organelles single cell’s organelle (fmol) b a single cell’s organelle (%) c […]
a HeLa cells were incubated with P-CyPt or CDDP (10 μM) for 1 h. After that, the cells were washed with PBS for three times, replaced with blank medium and cultured for another 24 h. The cells were trypsinized, collected, and the cell numbers were counted.
The cell pellets were dispersed in PBS buffer, lysed via ultrasound sonication, and centrifuged at different speed to separate membrane, nucleus, lysosome together with mitochondria, and cytoplasm. The concentration of Pt element in each organelle fraction was then measured by ICP-OES. Values denote mean ± s.d. (n = 3 independent […]
b The amount of Pt in a single HeLa cell’s subcellular organelle was calculated by dividing the total amount of Pt element in different subcellular organelles to the cell […]
c Percentage of Pt distributed in a single HeLa cell’s subcellular organelles was calculated by dividing the amount of Pt in a single cell’s subcellular organelles by the amount of Pt in a single cell (sum of organelles). […]
For Pt distribution analysis, the cells were treated with P-CyPt (10 μM) or CDDP (10 μM) for 1 h, and then washed with PBS for three times, followed by incubation with fresh medium for another 24 h. After that, cells were washed gently with 2 mL PBS once. The cells were trypsinized, centrifuged and counted. The cell lysates were separated according to a reported fragmentation procedure to obtained different cell fractions, including N (nuclei), M (plasma membrane), L (lysosomes and mitochondria) and C (cytosol). The Cells and different cell fractions were digested with concentrated HNO3 (65~70%) and HCl (36~38%) at 90 °C for 24 h. The solution was diluted to 5 mL 2% HNO3 and 5% HCl solution, and the concentration of Pt element was measured by ICP-OES, which was further applied to calculate the amount of Pt in cells and subcellular organelles. […]
The count number for each flow cytometry analysis was ~5000 to 10000, and the data was processed using FlowJo software.
Evaluation of the ability to break DNA double strand. Supercoiled pBR322 plasmi d DNA (20 ng μL–1) was incubated with blank Tris buffer (i) or Tris buffer containing GSH (2 mM, ii), Tris buffer containing CDDP (100 μM, iii), Tris buffer containing GSH (2 mM) and CDDP (100 μM, iv), Tris buffer containing P-CyPt (100 μM, v), Tris buffer containing P-CyPt (100 μM) and GSH (2 mM, vi), Tris buffer containing P-CyPt (100 μM) and ALP (500 U/L, vii), and Tris buffer containing P-CyPt (100 μM), ALP (500 U/L) and GSH (2 mM, viii) or incubated with P-CyPt ((0, 1, 2, 5, 10, 20, 50 and 100 μM, from i-viii) respectively in the presence of ALP (500 U/L), followed by incubation with GSH (2 mM) in Tris buffer) at 37 °C for 16 h. Then, the reactions (10 μL) were quenched by loading buffer (2 μL, including 30 mM EDTA, 36% glycerol, 0.05% xylene cyanol FF, and 0.05% bromophenol blue). The resulting solutions and 1kb-I DNA ladder (GsDL10001) were loaded into native agarose gel (1%) and subjected to electrophoresis in a TAE buffer (40 mM Tris acetate, 1 mM EDTA). The

[1] = CMC of CyPt and stability of PtIVNPs under different pH conditions; type: physicochemical; conditions: for FL intensity at 710 nm: Supplementary Fig. 8 a
Protocol: Co n cen t rati o n (μM) Time (h) Time (h)
Supplementary Figure 8. Evaluation of the CMC and stability of PtIVNPs under different pH conditions. (a) Plots of the fluorescence intensity (λem = 710 nm) versus the concentration of CyPt in Tris buffer determine the CMC of CyPt, which was found to be ~0.3 μM according to the intersection of the two linear fit lines. (b, c) Monitoring of the hydrodynamic size of Pt IVNPs upon incubation under (b) pH = 5.0, and (c) pH = 7.4 (10 μM) for 0-24 h. Date denote mean ± s.d. (n = 3 independent experiments).
(also on this page, place not known: Na 3VO4 ( λem 850 800 Normalized FL intensity Tris Trypsin Caspase-3 Normalized FL intensity 200Diameter (nm) 10 Diameter (nm) 7.4(b) CMC=0.3 00 . . 51.0 Concentration FL intensity (1 X 105) 0 2 1.5 2.0 3.0 (c)(a))

[2] = Cytoplasm (C), individual samples
[3] = Cytoplasm (C), mean of 3 samples
[4] = HeLa, 10 μM 1 h, then blank medium 24 h
[5] = Membrane(M), individual samples
[6] = Mito&Lyso (L), individual samples
[7] = Mito&Lyso (L), mean of 3 samples
[8] = Nucleus (N), individual samples

In the case of `CC1(C)C(/C=C/C2=C3Oc4cc(OP(=O)(O)O)c(Cl)cc4C=C3CCC2)=[N+](CCCNC(=O)[C@@H](Cc2ccccc2)NC(=O)[C@@H](Cc2ccccc2)NC(=O)CCC(=O)[O][Pt]([NH2])([NH2])([OH])([Cl])[Cl])c2ccccc21` [P-CyPt], the “Amount of Pt in subcellular fraction” value (HeLa cells; [2]) was 10.4601 fmol and 9.6958 fmol and 8.113 fmol, the “Distribution of Pt in subcellular fraction” value (HeLa cells; [2]) was 43.0958% and 39.9467% and 33.4263% and the “Amount of Pt in subcellular fraction” value (HeLa cells; [3]) was 9.42 fmol. For the same compound, the “Distribution of Pt in subcellular fraction” value (HeLa cells; [3]) was 38.82%, the “Amount of Pt distributed in a single cell's organelle: Cytoplasm” value (HeLa cells; [4]) was 9.42 ± 1.20 fmol and the “Amount of Pt distributed in a single cell's organelle: Lysosome & Mitochondria” value (HeLa cells; [4]) was 6.34 ± 0.81 fmol. For the same compound, the “Amount of Pt distributed in a single cell's organelle: Membrane” value (HeLa cells; [4]) was 1.46 ± 0.19 fmol, the “Amount of Pt distributed in a single cell's organelle: Nucleus” value (HeLa cells; [4]) was 7.05 ± 0.90 fmol and the “Percentage of Pt distributed in a single cell's organelle: Cytoplasm (cytosol)” value (HeLa cells; [4]) was 38.82%. The “Percentage of Pt distributed in a single cell's organelle: Lysosome & Mitochondria” value (HeLa cells; [4]) was 26.11% and ~ 26.11%, the “Percentage of Pt distributed in a single cell's organelle: Membrane” value (HeLa cells; [4]) was 6.02% and the “Percentage of Pt distributed in a single cell's organelle: Nucleus” value (HeLa cells; [4]) was 29.05% and ~ 29.05%. For the same compound, the “Amount of Pt in subcellular fraction” value (HeLa cells; [5]) was 0.7699 fmol and 1.266 fmol and 2.345 fmol, the “Distribution of Pt in subcellular fraction” value (HeLa cells; [5]) was 3.1718% and 5.2172% and 9.6606% and the “Amount of Pt in subcellular fraction” value (HeLa cells; Membrane(M), mean of 3 samples) was 1.46 fmol. The “Distribution of Pt in subcellular fraction” value (HeLa cells; Membrane(M), mean of 3 samples) was 6.02%, the “Amount of Pt in subcellular fraction” value (HeLa cells; [6]) was 6.19 fmol and 6.277 fmol and 6.546 fmol and the “Distribution of Pt in subcellular fraction” value (HeLa cells; [6]) was 25.5012% and 25.8599% and 26.9676%. For the same compound, the “Amount of Pt in subcellular fraction” value (HeLa cells; [7]) was 6.34 fmol, the “Distribution of Pt in subcellular fraction” value (HeLa cells; [7]) was 26.11% and the “Amount of Pt in subcellular fraction” value (HeLa cells; [8]) was 6.061 fmol and 7.285 fmol and 7.806 fmol. For the same compound, the “Distribution of Pt in subcellular fraction” value (HeLa cells; [8]) was 24.9722% and 30.0159% and 32.1624%, the “Amount of Pt in subcellular fraction” value (HeLa cells; Nucleus (N), mean of 3 samples) was 7.05 fmol and the “Distribution of Pt in subcellular fraction” value (HeLa cells; Nucleus (N), mean of 3 samples) was 29.05%.
For `CC1(C)C(/C=C/C2=C3Oc4cc(O)c(Cl)cc4C=C3CCC2)=[N+](CCCNC(=O)[C@@H](Cc2ccccc2)NC(=O)[C@@H](Cc2ccccc2)NC(=O)CCC(=O)[O][Pt]([NH2])([NH2])([OH])([Cl])[Cl])c2ccccc21` [CyPt], the “FL intensity at 710 nm” value ([1]; concentration of CyPt 0.05 μM) was 2780, the “FL intensity at 710 nm” value ([1]; concentration of CyPt 0.1 μM) was 5650 and the “FL intensity at 710 nm” value ([1]; concentration of CyPt 0.2 μM) was 11030. The “FL intensity at 710 nm” value ([1]; concentration of CyPt 0.3 μM) was 17800, the “FL intensity at 710 nm” value ([1]; concentration of CyPt 0.5 μM) was 19720 and the “FL intensity at 710 nm” value ([1]; concentration of CyPt 1 μM) was 24040. The “FL intensity at 710 nm” value ([1]; concentration of CyPt 2 μM) was 35120, the “FL intensity at 710 nm” value ([1]; concentration of CyPt 3 μM) was 46610 and the “critical micellar concentration (CMC)” value ([1]; Tris buffer, fluorescence at 710 nm) was “≈ 0.3 μM”.
